For this test, the target named is T1, S100A11 protein (Sus scrofa, UniProt P31950).
T1 sequence (P31950 1-99): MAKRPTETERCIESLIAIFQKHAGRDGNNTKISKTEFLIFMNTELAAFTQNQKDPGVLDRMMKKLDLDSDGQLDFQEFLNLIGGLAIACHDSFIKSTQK
Put plainly: Tryptophan fluorescence titration of peptide binding to S100A11. More on the design: species or system porcine.

These results are taken from PMC3062375 (Biochemistry, 2011).

Non-standard residues stand in square brackets, D forms with d. Residues, ends and D or L forms follow the SMILES beside them. No end group written: not given here. pS = N[C@@H](COP(=O)(O)O)C(=O)O

For orientation: Kd means the equilibrium constant for the complex coming apart. On to `CC[C@H](C)[C@H](NC(=O)[C@H](Cc1ccccc1)NC(=O)[C@H](Cc1c[nH]c2ccccc12)NC(=O)[C@H](C)NC(=O)[C@H](CCC(N)=O)NC(=O)[C@H](CCCCN)NC(=O)[C@H](CC(C)C)NC(=O)[C@H](Cc1ccccc1)NC(=O)[C@H](CCC(=O)O)NC(=O)[C@H](COP(=O)(O)O)NC(=O)[C@@H](NC(=O)[C@H](CCSC)NC(=O)[C@H](C)NC(C)=O)C(C)C)C(=O)N[C@@H](CCC(=O)O)C(=O)N[C@@H](CC(N)=O)C(=O)N[C@@H](CCC(=O)O)C(=O)N[C@@H](CCC(=O)O)C(=O)N[C@@H](CCC(N)=O)C(=O)O` [Ac1−18P, Ac-AMV[pSer]EFLKQAWFIENEEQ] (Ac-AMV[pS]EFLKQAWFIENEEQ-OH), for which binding was put at a Kd of 56.8 ± 1 µM.

“Ac-AMVSEFLKQAWFIENEEQ [Ac1−18, Ac-AMVSEFLKQAWFIENEEQ]” came in with a Kd of 2.1 ± 0.2 µM.
